Drawing on US8173682B2, “Substituted pyridones as inhibitors of poly(ADP-ribose) polymerase (PARP)” (Aventis Pharmaceuticals Inc., priority 2004, dated 2012), this text covers IC50 for 31 compounds.

Experiment [1] deals with recombinantly expressed human PARP-1 enzyme (Homo sapiens, UniProt P09874). The experiment in a line: PARP enzyme assay, Method B (tritium-labeled NAD incorporation). The experiment is classed as biochemical. Particulars: Method B; 200 μM NAD, room temperature 1 hour, pH 8.0; read-out: IC50 (μM)/Method B. How it is done:
Method B: PARP Enzyme Assay:
The IC50 is determined in this method by incubating the substances to be tested with the DNA-activated, recombinantly expressed and purified PARP-1 enzyme. Specifically, various concentrations of the test substance are incubated in 50 μL of reaction solution, which contains 50 mM Tris, 5 mM MgCl2, 1 mM DTT, 200 μM NAD, 0.1 m Ci/mL tritium-labeled NAD, 0.1 mg/mL DNA, 0.1 mg/mL histones, 2 μg/mL recombinantly expressed human PARP-1 enzyme, pH=8.0, at room temperature for 1 hour. The reaction is stopped by adding 150 μL of 20% trichloroacetic acid, and the radiolabeled protein constituents are precipitated. After incubation on ice for 10 minutes, the labeled, insoluble constituents are separated off through a glass fiber filter and, after washing with 20% trichloroacetic acid three times, the radioactivity incorporated by the PARP-1 enzyme is measured by radioluminescence. Consideration of the incorporation rates determined in this way as a function of the concentration of the test substance results in IC50 as the concentration of the test substance which reduces the incorporation rate to half the maximum value attainable (incubation without inhibitor).
The IC50 (fifty percent inhibitory concentration of the test substance in a solution—expressed at micromolar (μM) concentration) measured in accordance with these procedures for the compounds of this invention are summarized in Table 1.

In experiment [2] the target is T1, recombinant human PARP (PARP1) (Homo sapiens, UniProt P09874).
T1 construct: Full length human PARP (PARP1) is assembled from PCR fragments; His6 tag with TEV site, from the pFastBac-HTb vector (own knowledge of the vector); made in house; host or cells: insect cells, baculovirus (Bac-to-Bac, Gibco-BRL)
T1 sequence (P09874 whole entry, the tested form may be a part): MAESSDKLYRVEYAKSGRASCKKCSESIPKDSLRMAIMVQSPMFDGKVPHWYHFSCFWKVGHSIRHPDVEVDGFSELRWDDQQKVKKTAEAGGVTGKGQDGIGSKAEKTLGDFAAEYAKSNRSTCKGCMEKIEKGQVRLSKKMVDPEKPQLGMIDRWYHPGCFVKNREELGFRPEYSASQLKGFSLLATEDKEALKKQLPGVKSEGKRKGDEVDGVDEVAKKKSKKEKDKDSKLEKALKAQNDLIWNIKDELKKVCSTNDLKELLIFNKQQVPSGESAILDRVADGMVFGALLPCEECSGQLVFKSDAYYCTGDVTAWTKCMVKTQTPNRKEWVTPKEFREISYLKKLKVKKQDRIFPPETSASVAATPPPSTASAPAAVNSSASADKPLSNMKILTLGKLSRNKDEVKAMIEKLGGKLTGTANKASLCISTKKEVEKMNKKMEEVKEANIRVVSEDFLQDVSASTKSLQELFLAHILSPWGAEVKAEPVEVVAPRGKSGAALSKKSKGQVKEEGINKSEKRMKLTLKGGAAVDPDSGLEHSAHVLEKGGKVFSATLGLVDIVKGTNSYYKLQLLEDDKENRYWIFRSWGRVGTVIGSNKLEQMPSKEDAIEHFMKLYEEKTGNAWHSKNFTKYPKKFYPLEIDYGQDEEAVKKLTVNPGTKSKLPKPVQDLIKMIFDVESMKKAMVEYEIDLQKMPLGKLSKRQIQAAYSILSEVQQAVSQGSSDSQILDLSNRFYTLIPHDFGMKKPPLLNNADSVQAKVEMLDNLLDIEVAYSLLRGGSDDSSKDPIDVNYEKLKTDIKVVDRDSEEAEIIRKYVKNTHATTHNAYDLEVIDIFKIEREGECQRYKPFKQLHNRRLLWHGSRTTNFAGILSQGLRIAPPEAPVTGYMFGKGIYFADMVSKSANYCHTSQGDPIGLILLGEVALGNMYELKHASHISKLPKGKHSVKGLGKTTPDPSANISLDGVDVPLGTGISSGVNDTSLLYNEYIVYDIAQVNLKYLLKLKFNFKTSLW
The experiment in a line: PARP enzyme assay, Method A (radioactivity or 'ELISA' enzyme assay with partially purified enzyme). Format: biochemical. The settings on record: recombinant human PARP preparation, radioactive or ELISA enzyme assay. Summed up: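 Partially purified recombinant full-length His-tagged human PARP1, baculovirus-expressed. Radioactive format: 100 μg/mL sonicated DNA, 100 μg/mL histones, 100 mM Tris pH 8.0, 10 mM MgCl2, 200 μM labeled NAD, 10 min 37 °C or 60 min RT, TCA-precipitated counts. ELISA format: 250 μM NAD plus biotin-NAD on histone plates, TMB A450.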

Counter-ions that a name gives are not always drawn.

recombinantly expressed human PARP-1 enzyme, sequence (P09874 whole entry): as the sequence (P09874 whole entry, the tested form may be a part) above

Regarding `CCc1cc(-c2ccc(S(=O)(=O)NCc3ccccn3)s2)c(C)[nH]c1=O` [Example 31, 5-(5-Ethyl-2-methyl-6-oxo-1,6-dihydropyridin-3-yl)thiophene-2-sulfonic acid (pyridin-2-yl)methylamide hydrochloride], the IC50 in experiment [1] worked out at 0.44 µM.

Take `CCc1cc(-c2ccc(S(=O)(=O)NC(C)c3ccccn3)s2)c(C)[nH]c1=O` (stereo not shown) [Example 43, 5-(5-Ethyl-2-methyl-6-oxo-1,6-dihydropyridin-3-yl)thiophene-2-sulfonic acid 1-(pyridin-2-yl)ethylamide hydrochloride]: in experiment [1], the IC50 came to 0.21 µM.

Regarding `CCc1cc(-c2ccc(S(=O)(=O)NCCc3ccccn3)s2)c(C)[nH]c1=O` [Example 43A, 5-(5-Ethyl-2-methyl-6-oxo-1,6-dihydropyridin-3-yl)thiophene-2-sulfonic acid 2-(pyridin-2-yl)ethylamide], the IC50 in experiment [1] is 0.67 µM.

Take `CCc1cc(-c2ccc(S(=O)(=O)N3CCN(c4ncccn4)CC3)s2)c(C)[nH]c1=O` [Example 117, 3-Ethyl-6-methyl-5-[5-(4-pyrimidin-2-yl-piperazine-1-sulfonyl)thiophen-2-yl]-1H-pyridin-2-one hydrochloride]: in experiment [1], the IC50 was found to be 25.5 µM.

With `CCc1cc(-c2ccc(S(=O)(=O)NCc3ccccc3)s2)c(C)[nH]c1=O` [Example 122A, 5-(5-Ethyl-2-methyl-6-oxo-1,6-dihydro-pyridin-3-yl)-thiophene-2-sulfonic acid benzylamide], the IC50 in experiment [1] was 1.22 µM.

Take `CCc1cc(-c2ccc(CNCCc3cccnc3)s2)c(C)[nH]c1=O` [Example 163, 3-Ethyl-6-methyl-5-{5-{[(pyridin-3-ylethyl)amino]methyl}thiophen-2-yl)-1H-pyridin-2-one dihydrochloride]: in experiment [2], the IC50 was 1.7 µM.

Turning to `CCc1cc(-c2ccc(CNCc3cccc(Cl)c3)s2)c(C)[nH]c1=O` [Example 164, 5-{5-[(3-Chlorobenzylamino)methyl]thiophen-2-y}]-3-ethyl-6-methyl-1H-pyridin-2-one hydrochloride], in experiment [2], the IC50 came to 0.69 µM.

On to `CCc1cc(-c2ccc(CNCc3cccc(C)c3)s2)c(C)[nH]c1=O` [Example 165, 5-{5-[(3-Methylbenzylamino)methyl]thiophen-2-y}]-3-ethyl-6-methyl-1H-pyridin-2-one hydrochloride], for which, in experiment [2], the IC50 amounted to 0.98 µM.

For the compound `CCc1cc(-c2ccc(CNCc3ccc(C)cc3)s2)c(C)[nH]c1=O` [Example 166, 5-{5-[(4-Methylbenzylamino)methyl]thiophen-2-y}]-3-ethyl-6-methyl-1H-pyridin-2-one hydrochloride], the IC50 in experiment [2] came out at 0.68 µM.

As to `CCc1cc(-c2ccc(CNCc3cccc(OC)c3)s2)c(C)[nH]c1=O` [Example 167, 5-{5-[(3-Methoxybenzylamino)methyl]thiophen-2-y}]-3-ethyl-6-methyl-1H-pyridin-2-one hydrochloride], the IC50 in experiment [2] amounted to 0.55 µM.

As for `CCc1cc(-c2ccc(CNCc3ccc(Cl)cc3)s2)c(C)[nH]c1=O` [Example 168, 5-{5-[(4-chlorobenzylamino)methyl]thiophen-2-y}]-3-ethyl-6-methyl-1H-pyridin-2-one hydrochloride], the IC50 in experiment [2] amounted to 0.4 µM.

Consider `CCc1cc(-c2ccc(CNCc3ccc(OC)cc3)s2)c(C)[nH]c1=O` [Example 169, 5-{5-[(4-Methoxybenzylamino)methyl]thiophen-2-y}]-3-ethyl-6-methyl-1H-pyridin-2-one hydrochloride], for which, in experiment [2], the IC50 came out at 0.6 µM.

In the case of `CCc1cc(-c2ccc(CNCc3cccs3)s2)c(C)[nH]c1=O` [Example 170, 3-Ethyl-6-methyl-5-(5-{[(thiophen-2-ylmethyl)amino]methyl}-thiophen-2-yl)-1H-pyridin-2-one hydrochloride], the IC50 in experiment [2] was 0.28 µM.

With `CCc1cc(-c2ccc(CN3CCCC3)s2)c(C)[nH]c1=O` [Example 171, 3-Ethyl-6-methyl-5-(5-pyrrolidin-1-ylmethylthiophen-2-yl)-1H-pyridin-2-one hydrochloride], the IC50 in experiment [2] came out at 0.48 µM.

For the compound `CCc1cc(-c2ccc(CN3CCC(F)(F)C3)s2)c(C)[nH]c1=O` [Example 172, 5-{5-[(3,3-Difluoropyrrolidin-1-ylmethyl)(thiophen-2-yl)-3-ethyl-6-methyl-1H-pyridin-2-one hydrochloride], the IC50 in experiment [2] was 1 µM.

As to `CCc1cc(-c2ccc(CN3CCC(F)C3)s2)c(C)[nH]c1=O` (stereo not shown) [Example 173, 5-{5-[(3-Fluoropyrrolidin-1-ylmethyl)(thiophen-2-yl)-3-ethyl-6-methyl-1H-pyridin-2-one hydrochloride], the IC50 in experiment [2] amounted to 0.22 µM.

In the case of `CCc1cc(-c2ccc(CN3CCC(OC)C3)s2)c(C)[nH]c1=O` (stereo not shown) [Example 174, 3-Ethyl-5-{5-[(3-methoxypyrrolidin-1-ylmethyl)(thiophen-2-yl)-6-methyl-1H-pyridin-2-one hydrochloride], in experiment [2], the IC50 stood at 1.3 µM.

`CCc1cc(-c2ccc(CN)s2)c(C)[nH]c1=O` [Example 175, 5-(5-Aminomethylthiophen-2-yl)-3-ethyl-6-methyl-1H-pyridin-2-one hydrochloride]: in experiment [2], the IC50 was 0.15 µM.

For the compound `CCc1cc(-c2ccc(CNC(=O)CN3CCCC3)s2)c(C)[nH]c1=O` [Example 176, N-[5-(5-Ethyl-2-methyl-6-oxo-1,6-dihydropyridin-3-yl)thiophen-2-ylmethyl]-2-(pyrrolidin-1-yl)acetamide hydrochloride], the IC50 in experiment [2] is 0.28 µM.

With `CCc1cc(-c2ccc(CNC(=O)CN(C)C)s2)c(C)[nH]c1=O` [Example 177, 2-Dimethylamino-N-[5-(5-ethyl-2-methyl-6-oxo-1,6-dihydropyridin-3-yl)thiophen-2-ylmethyl]acetamide hydrochloride], the IC50 in experiment [2] was 0.49 µM.

Turning to `CCc1cc(-c2ccc(CNCc3cccc(C(F)(F)F)c3F)s2)c(C)[nH]c1=O` [Example 178, 3-Ethyl-5-{5-[(2-fluoro-3-trifluoromethylbenzylamino)methyl](thiophen-2-yl)-6-methyl-1H-pyridin-2-one hydrochloride], in experiment [2], the IC50 is 0.4 µM.

Take `CCc1cc(-c2ccc(CN3CCC(Cc4ccccc4)CC3)s2)c(C)[nH]c1=O` [Example 183, 5-[5-(4-Benzylpiperidin-1-ylmethyl)thiophen-2-yl]-3-ethyl-6-methyl-1H-pyridin-2-one hydrochloride]: the IC50 in experiment [2] turned out to be 2.4 µM.

Consider `CCc1cc(-c2ccc(CN3CCC(c4ccccc4)CC3)s2)c(C)[nH]c1=O` [Example 184, 3-Ethyl-6-methyl-5-[5-(4-phenylpiperidin-1-ylmethyl)thiophen-2-yl]-1H-pyridin-2-one hydrochloride], for which, in experiment [2], the IC50 was determined as 2.7 µM.

For `CCc1cc(-c2ccc(CN3CCC(O)(c4ccccc4)CC3)s2)c(C)[nH]c1=O` [Example 185, 3-Ethyl-5-[5-(4-hydroxy-4-phenylpiperidin-1-ylmethyl)thiophen-2-yl]-6-methyl-1H-pyridin-2-one hydrochloride], the IC50 in experiment [2] came to 1.8 µM.

On to `CCc1cc(-c2ccc(CNCc3ccccc3OC)s2)c(C)[nH]c1=O` [Example 187, 3-Ethyl-5-{5-[(2-methoxybenzylamino)methyl]thiophen-2-yl}-6-methyl-1H-pyridin-2-one hydrochloride], for which the IC50 in experiment [2] was found to be 0.4 µM.

As to `CCc1cc(-c2ccc(CNCc3ccccc3Cl)s2)c(C)[nH]c1=O` [Example 188, 5-{5-[(2-Chlorobenzylamino)methyl]thiophen-2-yl}-3-ethyl-6-methyl-1H-pyridin-2-one hydrochloride], the IC50 in experiment [2] worked out at 0.84 µM.

Take `CCc1cc(-c2ccc(CNC3CCCC3)s2)c(C)[nH]c1=O` [Example 189, 5-(5-Cyclopentylaminomethylthiophen-2-yl)-3-ethyl-6-methyl-1H-pyridin-2-one hydrochloride]: in experiment [2], the IC50 was 0.41 µM.

Regarding `CCc1cc(-c2ccc(CNC3CCCCC3)s2)c(C)[nH]c1=O` [Example 190, 5-(5-Cyclohexylaminomethylthiophen-2-yl)-3-ethyl-6-methyl-1H-pyridin-2-one hydrochloride], the IC50 in experiment [2] amounted to 0.54 µM.

On to `CCc1cc(-c2ccc(CN3CCC[C@H]3COC)s2)c(C)[nH]c1=O` [Example 191, 3-Ethyl-5-{5-[(S)-2-methoxymethylpyrrolidin-1-ylmethyl]thiophen-2-yl}-6-methyl-1H-pyridin-2-one hydrochloride], for which the IC50 in experiment [2] worked out at 0.8 µM.

Turning to `CCc1cc(-c2ccc(CNCc3ccccc3F)s2)c(C)[nH]c1=O` [Example 192, 3-Ethyl-5-{5-[(2-fluoro-benzylamino)-methyl]-thiophen-2-yl}-6-methyl-1H-pyridin-2-one hydrochloride], the IC50 in experiment [2] is 0.26 µM.

As for `CCc1cc(-c2ccc(CNCc3ccccn3)s2)c(C)[nH]c1=O` [Example 195, 3-Ethyl-6-methyl-5-(5-{[(pyridin-2-ylmethyl)amino]methyl}thiophen-2-yl)-1H-pyridin-2-one hydrochloride], in experiment [2], the IC50 was found to be 0.67 µM.
